The values that follow come from patent US20060156421A1, “High throughput screening methods for anti-metastatic compounds” (priority 2004, published 2006).

One data set deals with dRet. The experiment in a line: Drosophila screening: rough eye phenotype of GMR-dRet flies fed compound in microtiter wells. In kind it is in vivo, Drosophila melanogaster. The conditions noted are these: compound in growth medium. Here is the method: (§1) Accordingly, methods, related apparatus and kits for high throughput screening assays involve the preparation of microtiter plates each with multiple wells, wherein each well initially contains one or more Drosophila embryos with a transgene and an amount of a Drosophila growth medium. The embryos develop while feeding on the growth medium. The precise age of the embryos at the time they are plated matters less than the fact that they are all about the same age, to permit accurate evaluation of the possible effects of the candidate compound on larval and pupal development.
To prepare the microtiter plates, for example, 96-well microtiter plates are used, such as those commonly commercially available and typically used for various laboratory assay techniques, including other high throughput drug assay techniques. Into each well is pipetted 50-100 μl of standard Drosophila growth medium. An exemplary range of about 50 to about 100 μl is a balance between (i) providing sufficient food so as not to place undue feeding stress on the developing flies and (ii) providing sufficient air space for the third larval instars to find sufficient wall space to pupate and for minimal stress on the developing larvae and pupae. Any one of several standard Drosophila growth medium recipes as known in the art of breeding Drosophila for research can be used. […]

The subject of another data set is dRet^MEN2B. The experiment in a line: Drosophila screening: rough eye phenotype of GMR-dRet^MEN2B flies fed compound in microtiter wells. In kind it is in vivo, Drosophila melanogaster. Here is the method:
as §1
To prepare the microtiter plates, for example, 96-well microtiter plates are used, such as those commonly commercially available and typically used for various laboratory assay techniques, including other high throughput drug assay techniques. Into each well is pipetted 50-100 μl of standard Drosophila growth medium. An exemplary range of about 50 to about 100 μl is a balance between (i) providing sufficient food so as not to place undue feeding stress on the developing flies and (ii) providing sufficient air space for the third larval instars to find sufficient wall space to pupate and for minimal stress on the developing larvae and pupae. Any one of several standard Drosophila growth medium recipes as known in the art of breeding Drosophila for research can be used.
In an exemplary embodiment, a candidate compound, or cocktail of more than one compound, that has been selected for screening is prepared in EtOH or DMSO/aqueous solution. In an exemplary embodiment, EtOH is used. Although DMSO can be used, it can be toxic if it reaches final concentrations of more than 0.3% of the growth medium. The compound in solution is added and allowed to diffuse through the growth medium for an initial period of about 16 to about 24 hours. Alternatively, the compound in solution is mixed with the food by pipetting, by shaking, or by sonicating. […]

The subject of a further data set is Drosophila. The conditions noted are these: Drosophila melanogaster, in vivo. From the text: Lethality of candidate compounds for Drosophila can be used to detect and quantify toxicity of candidate compounds. Well known standard statistical methods are used to help distinguish chance results from real toxic effects. Lethality is quantified, for example, by determining the number of Drosophila that fail to develop successfully to adulthood and applying suitable statistical analyses to determine statistical significance. Lethal dose evaluations can be used to quantify the extent of toxicity. […] In another exemplary example, the emergence of most Drosophila adults within a microwell indicates a lowered probability that an introduced compound is toxic.
FIG. 3 illustrates in part the results of screening compound ZD6474 according to the screening methods of the present invention. […] Therefore, the estimated therapeutic index (ratio of concentrations that are toxic to Drosophila to concentrations that reduce the retinal phenotype is […].

The test system of another data set is Ret. The conditions noted are these: previously tested, Carlomagno et al., 2002; cited from earlier work.
Another data set has as its system VEGF-class receptors. The conditions noted are these: literature citations; cited from earlier work.

The structures appear in SMILES notation.

Regarding `COc1cc2c(Nc3ccc(Br)cc3F)ncnc2cc1OCC1CCN(C)CC1` [ZD6474], the “inhibition of severity of the rough eye phenotype of dRet” value with dRet was “strongly inhibit”. In addition, in the data set with dRet^MEN2B (Drosophila eye, compound in growth medium), the “inhibition of severity of the rough eye phenotype of dRet^MEN2B” value is “strongly inhibit”. For the same compound, the “rescue of the dRet^MEN2B phenotype” value with dRet^MEN2B (FIG. 3 panels, varying concentration) is “concentration-dependent”. The “doses at which at least partial rescue was observed” value in the data set on dRet^MEN2B (retinal phenotype, lowest effective concentration) is reported as at least 0.04 mM. For the same compound, in the data set on Drosophila, the “concentrations at which toxicity was observed” value was at least 2500 µM and the “estimated therapeutic index (ratio of concentrations toxic to Drosophila to concentrations that reduce the retinal phenotype)” value was 31. Also, in the data set on Ret, the “effect on Ret activity in a tissue culture model” value is on record as “reduce Ret activity”. Moreover, the “efficacy for VEGF-class receptors” value in the data set on VEGF-class receptors is “some efficacy”.
